Results from article PMC10149936, “Cofilin activation in pancreatic acinar cells plays a pivotal convergent role for mediating CCK-stimulated enzyme secretion and growth” (Frontiers in Physiology, 2023).

Assays:
[1] = system: cofilin (pS3) in rat pancreatic acini; assay: cofilin activation (phospho-pS3 cofilin Western blot) in isolated rat pancreatic acini; type: cell-based; conditions: for phosphorylation levels of cofilin with CCK-8 or TPA after cofilin inhibitor / inhibition of cofilin activation stimulated by CCK-8 or TPA: Cytochalasin D 10 µM or Paclitaxel 5 µM, 3 h; for phosphorylation levels of cofilin with CCK-8 or TPA after cofilin inhibitor: CCK-8 0.3 and 100 nM; for phosphorylation levels of cofilin with CCK-8 or TPA after cofilin inhibitor / time of return of cofilin phosphorylation to original basal level: TPA 1 µM; for inhibition of cofilin activation stimulated by CCK-8 or TPA: CCK-8 0.3 or 100 nM 3 min, TPA 1 µM 5 min; for time of return of cofilin phosphorylation to original basal level: CCK-8 0.3 or 100 nM
Method: (§1) Pancreatic acini preparations were obtained by collagenase digestion as previously described ([Bissonnette et al., 1984]; [Sato et al., 1989]; [Ramos-Alvarez and Jensen, 2018]). After collagenase digestion, dispersed acini were preincubated with different inhibitors in standard incubation solution ([Ramos-Alvarez and Jensen, 2018]; [Ramos-Ãlvarez et al., 2020]) for 3 h at 37°C under conditions specific for PKD/PKC, Src, PI3K, MAPKs, SSH1, LIMK, cofilin, other phosphatases and PAK4 inhibitors, as described previously ([Ramos-Alvarez and Jensen, 2018]; [Ramos-Ãlvarez et al., 2020]). Isolated acini and CCK1-R/Panc-1 cells (M&M 2.2.1) were also preincubated with two SSH1 inhibitors, D3 (25 μM, 1 h) ([Li et al., 2015]) or SE (50 μM, 3 h for acini; 24 h for CCK1-R/Panc-1 cells) ([Lee et al., 2017]). After preincubation, 1 mL aliquots of dispersed acini were incubated at 37°C for 3–15 min with CCK-8 (0.3 nM or 100 nM), for 5–15 min with TPA (1 µM) or without stimulants, used as control. Cells were lysed in lysis buffer (50 mM Tris/HCl pH 7.5, 150 mM NaCl, 1% Triton X-100, 1% deoxycholate, 0.1% sodium azide, 1 mM EGTA, 0.4 mM EDTA, 0.2 mM sodium orthovanadate, 1 mM PMSF, and one protease inhibitor tablet per 10 mL). After sonication, lysates were centrifuged at 10,000×g for 15 min at 4°C and protein concentration was measured using the Bio-Rad protein assay reagent. Finally, cells were processed as below for Western blotting.
Both concentrations of CCK-8 were used because CCK-8 is reported to have different responses with physiological and supraphysiological concentrations contributing to physiological and pathophysiological processes such as pancreatitis ([Dufresne et al., 2006]).
Western blotting and immunoprecipitation were performed as described previously ([Ramos-Alvarez and Jensen, 2018]). Whole cell lysates were subjected to SDS-PAGE using 4%–20% Tris–Glycine gels. […] Finally, membranes were then washed again twice in blocking buffer for 4 min, twice in washing buffer for 4 min, incubated for 4 min with chemiluminescence detection reagents. The intensity of the protein bands was measured using GeneTools software from Syngene, which were assessed in the linear detection range.
All experiments were performed at least 3 times. Data are presented as mean ± SEM and were analyzed with the non-parametric Kruskal–Wallis analysis (data was not normally distributed) and the Dunn’s multiple comparison test using the GraphPad Prism 8.0 software. P values < 0.05 were considered significant.
(A) Isolated pancreatic acini were incubated in the absence or presence of CCK-8 (100 nM), carbachol (1 μM), bombesin (1 nM), secretin (1 nM) or VIP (1 nM) for 1 min and then lysed. (B) Isolated pancreatic acini were incubated in the absence or presence of CCK-8 and CCK-JMV (at the indicate concentrations) for 3 min and then lysed. Western blots were analyzed using anti-pS3 cofilin, which mediates the activation state of cofilin. Bands were visualized using chemiluminescence and quantified by densitometry.

pancreatic acini = assay: amylase release from pancreatic acini (Phadebas); type: cell-based, rat; conditions: for inhibition of amylase secretion stimulated by CCK-8 and TPA / effect on basal amylase release: Cytochalasin D 10 µM or Paclitaxel 5 µM; for inhibition of amylase secretion stimulated by CCK-8 and TPA: 4 h, CCK-8 0.3 and 100 nM; for inhibition of amylase secretion stimulated by CCK-8 and TPA / increase in amylase release: 30 min; for effect on basal amylase release: pancreatic acini (Figure 13A)
Method: as §1, with “After collagenase digestion, dispersed acini were preincubated with different inhibitors in standard incubation solution ([Ramos-Alvarez and Jensen, 2018]; [Ramos-Ãlvarez et al., 2020]) for 3 h at 37°C under conditions specific for PKD/PKC, Src, PI3K, MAPKs, SSH1, LIMK, cofilin, other phosphatases and PAK4 inhibitors, as described previously ([Ramos-Alvarez and Jensen, 2018]; [Ramos-Ãlvarez et al., 2020]).” left out
Amylase release was performed as described previously ([Sato et al., 1989]; [Ramos-Alvarez and Jensen, 2018]). Amylase activity was determined after 30 min incubation using the Phadebas reagent and was expressed as percentage of the total cellular amylase released into the extracellular medium during the incubation ([Ramos-Alvarez and Jensen, 2018]).
FIGURE 13 Effect of two cofilin inhibitors, Cytochalasin D or Paclitaxel, (A, B), or Cofilin siRNA (C), on the ability of CCK/TPA/A71378-stimulated amylase release form pancreatic acini (A) or AR42J cells (B, C). In (A, B) pancreatic acini and AR42J cells were incubated in the absence or presence of Cytochalasin D (10 µM) or Paclitaxel (5 µM) for 4 h and then incubated with no additions (control) or CCK-8 (0.03, 0.3, 1 and 100 nM), TPA (1 µM) or A71378 (0.03 and 1 nM) for 30 min and then lysed. In (B, C) AR42J cells were treated with Dexamethasone (100 nM) for 72 h, and in (C) AR42J cells were transfected with siRNA Non-targeting Control and siRNA against cofilin for 48 h, and then incubated with no addition (control) or CCK-8 (0.03 and 1 nM) and A71378 (0.03 and 1 nM) for 30 min. Amylase release, expressed as percent of cellular total amylase secreted, was determined after 30 min incubation. Means ± S.E. of at least 3 independent experiments. N.S., No significant.

Molecule | phosphorylation levels of cofilin with CCK-8 or TPA after cofilin inhibitor [1] | inhibition of cofilin activation stimulated by CCK-8 or TPA [1] | inhibition of amylase secretion stimulated by CCK-8 and TPA (pancreatic acini; TPA 1 µM) | effect on basal amylase release (pancreatic acini) | time of return of cofilin phosphorylation to original basal level [1] | other results
CC(=O)O[C@H]1C(=O)[C@@]2(C)[C@H]([C@H](OC(=O)c3ccccc3)[C@]3(O)C[C@H](OC(=O)[C@H](O)[C@@H](NC(=O)c4ccccc4)c4ccccc4)C(C)=C1C3(C)C)[C@]1(OC(C)=O)CO[C@@H]1C[C@@H]2O [Paclitaxel] | significant increase in phosphorylation levels of cofilin | completely inhibited | completely inhibited | Neither of these two cofilin inhibitors influenced basal amylase release |  | 
C=C1[C@@H](C)[C@H]2[C@H](Cc3ccccc3)NC(=O)[C@]23[C@H](OC(C)=O)/C=C/[C@@](C)(O)C(=O)[C@@H](C)C/C=C/[C@H]3[C@@H]1O [Cytochalasin D] | significant increase in phosphorylation levels of cofilin | completely inhibited | completely inhibited | Neither of these two cofilin inhibitors influenced basal amylase release |  | 
CCCCCCCCCCCCCC(=O)O[C@@H]1[C@@H](C)[C@@]2(O)[C@@H](C=C(CO)C[C@]3(O)C(=O)C(C)=C[C@@H]23)[C@H]2C(C)(C)[C@]12OC(C)=O [TPA, 12-O-tetradecanoylphobol-13-acetate] |  |  |  |  | 60 min | increase in amylase release (pancreatic acini; TPA 1 µM): 278%
COOH-terminal octapeptide of cholecystokinin [CCK-8] |  |  |  |  | 60 min | effect on cofilin phosphorylation (pS3) ([1]; 1 min, CCK-8 100 nM, carbachol 1 μM, bombesin 1 nM, secretin 1 nM or VIP 1 nM, n at least 3): rapidly decreased cofilin phosphorylation; concentration with detectible decrease in cofilin phosphorylation ([1]; 3 min): 1 pM; maximal dephosphorylation (i.e., activation) of cofilin ([1]; at 1 nM, 3 min): 62%; share of CCK-8 stimulation of cofilin activation mediated by the high-affinity state CCK1 receptor ([1]; from comparison with CCK-JMV): 58%; share of CCK-8 stimulation of cofilin activation mediated by the low affinity CCK1 receptor state ([1]; from comparison with CCK-JMV): 42%; EC50 ([1]; pS3 cofilin, 3 min incubation, at least 3 experiments, mean ± SEM, read-out: half-maximal effect (EC50) for decrease of cofilin phosphorylation): 1.8 ± 0.1 pM; increase in amylase release (pancreatic acini; CCK-8 0.3 nM): 207%
